Results from publication PMC8222254, “Self-assembly of an anion receptor with metal-dependent kinase inhibition and potent in vitro anti-cancer properties” (Nature Communications, 2021).
pIC50: −log10 of the molar value. “And” between values parts separate entries of the source, which are not always exact repeats. Identical values can stand only once. Like-named read-outs stand apart in the source and are kept apart here.

Columns and labels:
Assay in all cases: Chemosensitivity, 96 h continuous exposure, MTT assay
Type in all cases: cell-based, human
HT-29 = system: HT-29
From the text: (§1) All cell lines were purchased from and maintained as monolayers as described by the American Type Culture Collection with the exception of the p53^+/+ and p53^−/− isogenic clones of HCT116 human colorectal adenocarcinoma cells which were a kind gift from Professor Bert Vogelstein[54]. GBM1 cells were established from a primary GBM tumour by Heiko Wurdak and colleagues[32],[33]. Non-cancerous adult brain neural progenitor (NP1) cells were derived from a patient undergoing surgery to treat epilepsy[32],[33]. Cell culture and growth media for NP1 and GBM1 cells were as described[32],[33]. The response of cells following a continuous 96-h exposure to test compounds and platinates was determined using the MTT assay. Potency was recorded as the IC50 and the selectivity index (SI) was defined as the ratio of IC50 values for non-cancer to cancer cell lines with values >1 representing selectivity for cancer cells as opposed to non-cancer cells.
(§2) All cell lines used were maintained at low passage in antibiotic-free media. HT29, DLD-1, HCT116 p53^+/+ and HCT116 p53^−/− are all colorectal adenocarcinoma cell lines derived from different individuals and harbour different combinations of oncogenic lesions (except for the HCT116 isogenic cancer cell clones that are genetically identical except for p53 status). PSN-1, BxPC-3 and MiaPaCa2 are pancreatic carcinoma cell lines and A549 and H460 are lung carcinoma cell lines. HT29, DLD-1, PSN-1, BxPC-3, A549 and H460 cell lines were cultured in RPMI-1640 growth media (Sigma) containing 2 mM L-glutamine, 1 mM sodium pyruvate and 10% foetal bovine serum (FBS). HCT116 (p53^+/+ and p53^−/−) and MiaPaCa2 cell lines were cultured in Dulbecco’s Modified Eagle’s Medium (Sigma), 2 mM L-glutamine and 10% FBS. The ARPE-19 retinal epithelial non-cancer cell line was cultured in DMEM/F12 media (Gibco), 2 mM L-glutamine, 1 mM sodium pyruvate and 10% FBS. The MCF10A non-cancerous human breast epithelial cell line was cultured in Minimal Essential Media Eagle (Sigma), 2 mM L-glutamine, 1 mM sodium pyruvate, 10% FBS and 1x non-essential amino acids (NEAA). NP1 and GBM1 cells were cultured on plasticware coated with poly-L-ornithine (5 µg/ml) and laminin (2.4 µg/ml)[32],[33]. NP1 cells were grown in DMEM/F12 media (Gibco) supplemented with 5% FBS, 20 ng/ml hFGF, 20 ng/ml rhEGF, 0.5x B-27 supplement (Gibco), 0.5x N-2 supplement (Gibco) and 1x GLUTAMAX (Gibco). GBM1 cells were cultured in Neurobasal media (Gibco) supplemented with 40 ng/ml hFGF, 40 ng/ml rhEGF, 0.5x B-27 supplement (Gibco) and 0.5x N-2 supplement (Gibco).
(§3) [L2(Metal)3]^6+ and all the other self-assembling complexes were freshly formed by adding DMSO to individual components and mixing together by pipetting. These were then further diluted in cell culture media such that the final DMSO concentration that cells were exposed to was 0.2% (vehicle control). Cisplatin, oxaliplatin and carboplatin were dissolved in phosphate buffered saline. Cell lines were seeded into 96 well plates at 2 × 10^3 cells per well and incubated overnight at 37 °C. GBM1 cancer stem-like cells were seeded at 3 × 10^3 cells per well and NP1 neural progenitors were seeded at 1.5 × 10^3 cells per well. The following day, media was removed and replaced with fresh media containing test compounds at a range of concentrations. Cells were incubated with test compounds for a further 96 h after which the media was removed and replaced with fresh media (200 μl/well). MTT was added (20 μl at 5 mg/ml) and cells were incubated for a further 4 h. Media and MTT were removed and formazan crystals were dissolved in 150 μl of DMSO and the absorbance of the resulting solution determined at 540 nm. Dose response curves were constructed, and the concentration required to reduce cell growth by 50% (IC50) determined.

MCF10A non-cancer cells = system: MCF10A non-cancer cells
From the text: as §1, §2, §3

DLD-1 = system: DLD-1
From the text: as §1, §2, §3

A549 = system: A549
From the text: as §1, §2, §3

ARPE-19 non-cancer cells = system: ARPE-19 non-cancer cells
From the text: as §1, §2, §3

BxPC3 = system: BxPC3
From the text: as §1, §2, §3

PSN1 = system: PSN1
From the text: as §1, §2, §3

[1] = ARPE-19 non-cancer, read-out: Mean IC50 values

For `O=P([O-])([O-])Oc1ccccc1.[Cu+2].[Cu+2].[Cu+2].c1ccc(-c2csc(NCCN(CCNc3nc(-c4ccccn4)cs3)CCNc3nc(-c4ccccn4)cs3)n2)nc1.c1ccc(-c2csc(NCCN(CCNc3nc(-c4ccccn4)cs3)CCNc3nc(-c4ccccn4)cs3)n2)nc1` [[L2Cu3(O3POPh)]4+], the pIC50 (HT-29; HT29, mean of replicates, read-out: Mean IC50) was 6.16, the pIC50 (HT-29; HT29, read-out: Mean IC50 values) was 6.16 and the pIC50 (HT-29; HT-29, single replicate, read-out: IC50 values for each replicate) was 6.16 and 6.07 and 6.19 and 6.71 and 5.80 and 6.67. The “Selectivity index (ARPE19)” value (HT-29; IC50 ARPE-19 / IC50 HT29) was 165.81, the “Selectivity index (MCF10A)” value (HT-29; IC50 MCF10A / IC50 HT29) was 74.07 and the “Relative potency (+ anion to no anion), Ratio + anion:no anion” value (“Relative potency … Ratio + anion:no anion” below) (HT-29; ratio of IC50, HT29) was 3.25. The “Selectivity indices relative to ARPE-19, Ratio + anion:no anion” value (HT-29; ratio of SI (ARPE-19), HT29) was 0.674, the “Selectivity indices relative to MCF10A, Ratio + anion:no anion” value (HT-29; ratio of SI (MCF 10A), HT29) was 0.328 and the pIC50 (MCF10A non-cancer cells; MCF10A non-cancer, read-out: Mean IC50 values) was 4.29. The pIC50 (MCF10A non-cancer cells; MCF10A, mean of replicates, read-out: Mean IC50) was 4.29, the pIC50 (MCF10A non-cancer cells; MCF10A, single replicate, read-out: IC50 values for each replicate) was 4.22 and 4.31 and 4.26 and 4.38 and the “Relative potency … Ratio + anion:no anion” value (MCF10A non-cancer cells; ratio of IC50, MCF10A) was 1.07. For the same molecule, the pIC50 (DLD-1; DLD-1, mean of replicates, read-out: Mean IC50) was 6.41, the pIC50 (DLD-1; DLD-1, read-out: Mean IC50 values) was 6.41 and the “Selectivity index (ARPE19)” value (DLD-1; IC50 ARPE-19 / IC50 DLD-1) was 293.98. For the same molecule, the “Selectivity index (MCF10A)” value (DLD-1; IC50 MCF10A / IC50 DLD-1) was 131.32, the “Relative potency … Ratio + anion:no anion” value (DLD-1; ratio of IC50, DLD-1) was 2.97 and the “Selectivity indices relative to ARPE-19, Ratio + anion:no anion” value (DLD-1; ratio of SI (ARPE-19), DLD-1) was 0.737. The “Selectivity indices relative to MCF10A, Ratio + anion:no anion” value (DLD-1; ratio of SI (MCF 10A), DLD-1) was 0.359, the pIC50 (A549; A549, mean of replicates, read-out: Mean IC50) was 5.77 and the pIC50 (A549; A549, read-out: Mean IC50 values) was 5.77. The pIC50 (A549; A549, single replicate, read-out: IC50 values for each replicate) was 5.74 and 5.80 and 5.76, the “Selectivity index (ARPE19)” value (A549; IC50 ARPE-19 / IC50 A549) was 67.55 and the “Selectivity index (MCF10A)” value (A549; IC50 MCF10A / IC50 A549) was 30.17. For the same molecule, the “Relative potency … Ratio + anion:no anion” value (A549; ratio of IC50, A549) was 7.32, the “Selectivity indices relative to ARPE-19, Ratio + anion:no anion” value (A549; ratio of SI (ARPE-19), A549) was 0.299 and the “Selectivity indices relative to MCF10A, Ratio + anion:no anion” value (A549; ratio of SI (MCF 10A), A549) was 0.146. For the same molecule, the pIC50 (ARPE-19 non-cancer cells; ARPE-19, mean of replicates, read-out: Mean IC50) was 3.94, the pIC50 (ARPE-19 non-cancer cells; ARPE-19, single replicate, read-out: IC50 values for each replicate) was 3.75 and 3.80 and 4.22 and 4.19 and the pIC50 (ARPE-19 non-cancer cells; [1]) was 3.94. For the same molecule, the “Relative potency … Ratio + anion:no anion” value (ARPE-19 non-cancer cells; ratio of IC50, ARPE-19) was 2.19, the pIC50 (BxPC3; BXPC3, mean of replicates, read-out: Mean IC50) was 4.29 and the pIC50 (BxPC3; BXPC3, read-out: Mean IC50 values) was 4.40. For the same molecule, the pIC50 (BxPC3; BXPC3, single replicate, read-out: IC50 values for each replicate) was 4.23 and 4.39 and 4.32 and 4.28, the “Selectivity index (ARPE19)” value (BxPC3; IC50 ARPE-19 / IC50 BXPC3) was 2.92 and the “Selectivity index (MCF10A)” value (BxPC3; IC50 MCF10A / IC50 BXPC3) was 1.30. The “Relative potency … Ratio + anion:no anion” value (BxPC3; ratio of IC50, BXPC3) was 134.82, the “Selectivity indices relative to ARPE-19, Ratio + anion:no anion” value (BxPC3; ratio of SI (ARPE-19), BXPC3) was 0.016 and the “Selectivity indices relative to MCF10A, Ratio + anion:no anion” value (BxPC3; ratio of SI (MCF 10A), BXPC3) was 0.008. The “Selectivity index (ARPE19)” value (PSN1; IC50 ARPE-19 / IC50 PSN1) was 536.00, the “Selectivity index (MCF10A)” value (PSN1; IC50 MCF10A / IC50 PSN1) was 239.43 and the pIC50 (PSN1; PSN1, mean of replicates, read-out: Mean IC50) was 6.67. For the same molecule, the pIC50 (PSN1; PSN1, read-out: Mean IC50 values) was 6.67, the pIC50 (PSN1; PSN1, single replicate, read-out: IC50 values for each replicate) was 6.71 and 6.66 and 6.64 and the “Relative potency … Ratio + anion:no anion” value (PSN1; ratio of IC50, PSN1) was 0.0333. For the same molecule, the “Selectivity indices relative to ARPE-19, Ratio + anion:no anion” value (PSN1; ratio of SI (ARPE-19), PSN1) was 65.686 and the “Selectivity indices relative to MCF10A, Ratio + anion:no anion” value (PSN1; ratio of SI (MCF 10A), PSN1) was 32.009.

For `[Mn+2].[Mn+2].[Mn+2].c1ccc(-c2csc(NCCN(CCNc3nc(-c4ccccn4)cs3)CCNc3nc(-c4ccccn4)cs3)n2)nc1.c1ccc(-c2csc(NCCN(CCNc3nc(-c4ccccn4)cs3)CCNc3nc(-c4ccccn4)cs3)n2)nc1` [[L2Mn3]6+], the pIC50 (ARPE-19 non-cancer cells; ARPE-19, 96 h, MTT, individual run, read-out: IC50 values for each replicate) was 5.29 and 5.68 and 5.67, the pIC50 (ARPE-19 non-cancer cells; ARPE-19, 96 h, MTT, mean of at least 3 independent experiments, read-out: Mean IC50) was 5.54 and the pIC50 (ARPE-19 non-cancer cells; [1]) was 5.54.
